What was measured:
[1] = test system: mouse; experiment: Tail clip test (analgesic effect); assay type: in vivo; details: 100 mpk, intragastric
Procedure: The assessment of the analgesic effect of the present compounds was conducted in the tail clip test.
A specific clip is applied to the base of the tail of the mouse (adult male weighing 18-25 grams) and the time for the animal to turn around to bite at it is measured. The sensitivity of each mouse is determined one-half hour prior to drug administration. Only those mice attempting to bite the clip are included in the experiment. The test compound is then administered intragastrically and the response to placement of the clip is determined at 30, 60, 90 and 120 minutes after treatment. A response is considered positive if the animal takes more than 2 times the pre-drug time to bite at the clip at any of these time intervals. A test compound is considered active when 50 percent or more of the animals used show a positive response.

[2] = test system: castor oil induced diarrhea; experiment: Castor oil induced diarrhea in the rat; assay type: in vivo, Charles River male rats; details: for ED50: Rattus norvegicus, po, 1 hour before castor oil; for Potency: relative to diphenoxylate hydrochloride
Procedure: Adult Charles River male rats were fasted in community cages for 24 hours prior to the test, with free access to water. The compound was administered intragastrically (suspended on 0.5% methycellulose) one hour prior to the administration of castor oil at the dose of 1.0 ml/rat intragastrically. The rats were then observed for the presence or absence of diarrhea, at hourly intervals for up to 8 hours past administration of castor oil. The median effective dose values at each hourly interval were calculated for the compound using the method of Berkson (1953). […] For example:
Comparative Oral Antidiarrheal Potency and Duration of 4-aminomethyl-1-1-(3,3,3-triphenylpropyl)-4-phenylpiperidine hydrochloride (Compound A) to Diphenoxylate hydrochloride in Rat Castor Oil Diarrhea Test.

## Cl.NCC1(c2ccccc2)CCN(CCC(c2ccccc2)(c2ccccc2)c2ccccc2)CC1 [Compound A, 4-aminomethyl-1-(3,3,3-triphenylpropyl)-4-phenylpiperidine hydrochloride]
[1]
  analgesic effect: weak analgesic effect
[2]; 2 hours after castor oil, intragastric
  ED50: 3.53 mg/kg
[2]; 3 hours after castor oil, intragastric
  ED50: 4.24 mg/kg
[2]; 4 hours after castor oil, intragastric
  ED50: 5.4 mg/kg
[2]; 5 hours after castor oil, intragastric
  ED50: 5.58 mg/kg
[2]; 6 hours after castor oil, intragastric
  ED50: 5.79 mg/kg
[2]; 7 hours after castor oil, intragastric
  ED50: 7.48 mg/kg
[2]; 8 hours after castor oil, intragastric
  ED50: 7.48 mg/kg
[2]; rat castor oil test, intragastric
  inhibition of gastrointestinal motility: found to inhibit gastrointestinal motility
[2]; 2 hours after castor oil
  Potency: 0.06
[2]; 3 hours after castor oil
  Potency: 0.11
[2]; 4 hours after castor oil
  Potency: 0.16
[2]; 5 hours after castor oil
  Potency: 0.24
[2]; 6 hours after castor oil
  Potency: 0.29
[2]; 7 hours after castor oil
  Potency: 0.25
[2]; 8 hours after castor oil
  Potency: 0.26

Reference: patent US4069223A, “4-Aminomethyl-1-(3,3,3-triarylpropyl)-4-arylpiperidine and derivatives thereof” (G. D. Searle & Co., priority 1977, dated 1978)
